Data from patent US8952024B2, “Herbicidal pyrimidone derivatives” (E I du Pont de Nemours and Company, priority 2009, dated 2015).

Legend:
Assay type in all cases: in vivo
[1] = system: umbrella sedge (Cyperus difformis); assay: Test B flooded paddy test; details: for Plant response rating, Sedge, Umbrella: Flood (flooded paddy test), 13 to 15 days
Outline: (§1)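 Plants were grown to the 2-leaf stage, then pots were flooded to 3 cm above the soil and compounds were applied directly into the paddy water. That depth was held throughout. After 13 to 15 days in a greenhouse, injury was visually rated against controls on a 0–100 scale.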

rice (Oryza sativa) = assay: Test B flooded paddy test; details: for Plant response rating, Rice: Flood (flooded paddy test), 13 to 15 days
Outline: as §1

[2] = system: ducksalad (Heteranthera limosa); assay: Test B flooded paddy test; details: for Plant response rating, Ducksalad: Flood (flooded paddy test), 13 to 15 days
Outline: as §1

[3] = system: barnyardgrass (Echinochloa crus-galli); assay: Test B flooded paddy test; details: for Plant response rating, Barnyardgrass: Flood (flooded paddy test), 13 to 15 days
Outline: as §1

[4] = system: velvetleaf (Abutilon theophrasti); assay: Test A pre-/postemergence plant response
Outline: (§2)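 Plants grown from seed in a loam soil and sand mix received test compounds both as a preemergence soil spray and, at the same time, as a postemergence spray at the one- to two-leaf stage. Injury was judged visually against untreated controls roughly ten days later, 0 meaning no effect and 100 complete control.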

[5] = system: large crabgrass (Digitaria sanguinalis); assay: Test A pre-/postemergence plant response
Outline: as §2

[6] = system: giant foxtail (Setaria faberii); assay: Test A pre-/postemergence plant response
Outline: as §2

[7] = system: morningglory (Ipomoea spp.); assay: Test A pre-/postemergence plant response
Outline: as §2

[8] = system: wheat (Triticum aestivum); assay: Test A pre-/postemergence plant response
Outline: as §2

corn (Zea mays) = assay: Test A pre-/postemergence plant response
Outline: as §2

[9] = system: barnyardgrass (Echinochloa crus-galli); assay: Test A pre-/postemergence plant response
Outline: as §2

[10] = system: pigweed (Amaranthus retroflexus); assay: Test A pre-/postemergence plant response
Outline: as §2

[11] = 125 g ai/ha, scale 0 to 100, 0 is no effect, 100 is complete control
[12] = Flood, 31 g ai/ha, scale 0 to 100 (0 no effect, 100 complete control)
[13] = Postemergence, 125 g ai/ha, 0 to 100 scale where 0 is no effect and 100 is complete control
[14] = Postemergence, 500 g ai/ha, 0 to 100 scale, 0 = no effect, 100 = complete control, approx. ten days
[15] = Preemergence, 125 g ai/ha, 0 to 100 scale, 0 = no effect, 100 = complete control
[16] = Preemergence, 500 g ai/ha, 0 to 100 scale, 0 = no effect, 100 = complete control
[17] = Preemergence, 500 g ai/ha, visual injury, 0 to 100 scale (0 no effect, 100 complete control), approx. ten days
[18] = 250 g ai/ha, flooded paddy test, visual rating on 0 to 100 scale (0 no effect, 100 complete control) after 13 to 15 days
[19] = 31 g ai/ha, scale of 0 to 100 where 0 is no effect and 100 is complete control
[20] = 62 g ai/ha, scale of 0 to 100 where 0 is no effect and 100 is complete control
[21] = Postemergence, 125 g ai/ha, visual injury, 0 to 100 scale (0 no effect, 100 complete control), approx. ten days

## Cc1ccc(F)cc1-n1c(-c2cccc(Cl)c2)ncc(C(=O)C2=C(O)CCCC2=O)c1=O [Compound 157]
[1]; [11]
  Plant response rating, Sedge, Umbrella: 75
[1]; [12]
  Sedge, Umbrella plant response rating: 40
Rice (Oryza sativa); [11]
  Plant response rating, Rice: 0
Rice (Oryza sativa); [12]
  Rice plant response rating: 0
[2]; [11]
  Plant response rating, Ducksalad: 70
[2]; [12]
  Ducksalad plant response rating: 50
[3]; [11]
  Plant response rating, Barnyardgrass: 0
[3]; [12]
  Barnyardgrass plant response rating: 0
[4]; [13]
  Plant response rating, Velvetleaf: 100
[4]; [14]
  Plant response rating, Velvetleaf: 100
[4]; [15]
  Plant response rating, Velvetleaf: 60
[4]; [16]
  Plant response rating, Velvetleaf: 100
[5]; [13]
  Plant response rating, Crabgrass, Large: 80
[5]; [14]
  Plant response rating, Crabgrass, Large: 100
[5]; [15]
  Plant response rating, Crabgrass, Large: 20
[5]; [17]
  Plant response rating, Crabgrass, Large: 70
[6]; [13]
  Plant response rating, Foxtail, Giant: 90
[6]; [14]
  Plant response rating, Foxtail, Giant: 100
[6]; [15]
  Plant response rating, Foxtail, Giant: 10
[6]; [17]
  Plant response rating, Foxtail, Giant: 50
[7]; [13]
  Plant response rating, Morningglory: 10
[7]; [14]
  Plant response rating, Morningglory: 30
[7]; [15]
  Plant response rating, Morningglory: 0
[7]; [17]
  Plant response rating, Morningglory: 0
[8]; [13]
  Plant response rating, Wheat: 0
[8]; [14]
  Plant response rating, Wheat: 0
[8]; [15]
  Plant response rating, Wheat: 0
[8]; [16]
  Plant response rating, Wheat: 0
Corn (Zea mays); [13]
  Plant response rating, Corn: 0
Corn (Zea mays); [14]
  Plant response rating, Corn: 30
Corn (Zea mays); [15]
  Plant response rating, Corn: 0
Corn (Zea mays); [17]
  Plant response rating, Corn: 0
[9]; [13]
  Plant response rating, Barnyardgrass: 90
[9]; [14]
  Plant response rating, Barnyardgrass: 100
[9]; [15]
  Plant response rating, Barnyardgrass: 0
[9]; [17]
  Plant response rating, Barnyardgrass: 50
[10]; [13]
  Plant response rating, Pigweed: 90
[10]; [14]
  Plant response rating, Pigweed: 100
[10]; [15]
  Plant response rating, Pigweed: 0
[10]; [17]
  Plant response rating, Pigweed: 50

## O=C1CCCC(O)=C1C(=O)c1cnc(-c2cccc(Cl)c2)n(-c2ccc(Cl)cc2)c1=O [Compound 64]
[1]; [18]
  Plant response rating, Flood, Sedge, Umbrella: 40
[1]; [19]
  Plant response rating, Sedge, Umbrella: 0
[1]; [20]
  Plant response rating, Sedge, Umbrella: 0
[1]; [11]
  Plant response rating, Sedge, Umbrella: 0
Rice (Oryza sativa); [18]
  Plant response rating, Flood, Rice: 0
Rice (Oryza sativa); [19]
  Plant response rating, Rice: 0
Rice (Oryza sativa); [20]
  Plant response rating, Rice: 0
Rice (Oryza sativa); [11]
  Plant response rating, Rice: 0
[2]; [18]
  Plant response rating, Flood, Ducksalad: 60
[2]; [19]
  Plant response rating, Ducksalad: 30
[2]; [20]
  Plant response rating, Ducksalad: 30
[2]; [11]
  Plant response rating, Ducksalad: 50
[3]; [18]
  Plant response rating, Flood, Barnyardgrass: 0
[3]; [19]
  Plant response rating, Barnyardgrass: 0
[3]; [20]
  Plant response rating, Barnyardgrass: 0
[3]; [11]
  Plant response rating, Barnyardgrass: 0
[4]; [21]
  Velvetleaf plant response rating: 100
[4]; [14]
  Plant response rating, Velvetleaf: 100
[4]; [15]
  Plant response rating, Velvetleaf: 60
[4]; [17]
  Plant response rating, Velvetleaf: 90
[5]; [21]
  Crabgrass, Large plant response rating: 80
[5]; [14]
  Plant response rating, Crabgrass, Large: 90
[5]; [15]
  Plant response rating, Crabgrass, Large: 80
[5]; [17]
  Plant response rating, Crabgrass, Large: 90
[6]; [21]
  Foxtail, Giant plant response rating: 60
[6]; [14]
  Plant response rating, Foxtail, Giant: 80
[6]; [15]
  Plant response rating, Foxtail, Giant: 50
[6]; [17]
  Plant response rating, Foxtail, Giant: 70
[7]; [21]
  Morningglory plant response rating: 90
[7]; [14]
  Plant response rating, Morningglory: 100
[7]; [15]
  Plant response rating, Morningglory: 0
[7]; [17]
  Plant response rating, Morningglory: 0
[8]; [21]
  Wheat plant response rating: 0
[8]; [14]
  Plant response rating, Wheat: 30
[8]; [15]
  Plant response rating, Wheat: 0
[8]; [17]
  Plant response rating, Wheat: 0
Corn (Zea mays); [21]
  Corn plant response rating: 0
Corn (Zea mays); [14]
  Plant response rating, Corn: 60
Corn (Zea mays); [15]
  Plant response rating, Corn: 0
Corn (Zea mays); [17]
  Plant response rating, Corn: 0
[9]; [21]
  Barnyardgrass plant response rating: 50
[9]; [14]
  Plant response rating, Barnyardgrass: 90
[9]; [15]
  Plant response rating, Barnyardgrass: 10
[9]; [17]
  Plant response rating, Barnyardgrass: 90
[10]; [21]
  Pigweed plant response rating: 90
[10]; [14]
  Plant response rating, Pigweed: 100
[10]; [15]
  Plant response rating, Pigweed: 80
[10]; [17]
  Plant response rating, Pigweed: 100
